Assay results from patent publication US20150322038A1, “PYRAZINE DERIVATIVES AND THEIR USE IN THE TREATMENT OF NEUROLOGICAL DISORDERS” (NOVARTIS AG, priority 2009, published 2015).
pIC50: −log10 of the molar value.

Experiments:
[1] = tested on: cellular release of amyloid peptide 1-40; test: Test 4: Inhibition of cellular release of amyloid peptide 1-40; format: cell-based; settings: Cricetulus griseus, Chinese hamster ovary cells transfected with the gene for amyloid precursor protein, 24 hours with compound, amyloid peptide 1-40 in supernatant, read-out: Bace IC50
Description: Test 4: Inhibition of Cellular Release of Amyloid Peptide 1-40
Chinese hamster ovary cells are transfected with the gene for amyloid precursor protein. The cells are plated at a density of 8000 cells/well into 96-well microtiter plates and cultivated for 24 hours in DMEM cell culture medium containing 10% FCS. The test compound is added to the cells at various concentrations, and the cells are cultivated for 24 hours in the presence of the test compound. The supernatants are collected, and the concentration of amyloid peptide 1-40 is determined using state of the art immunoassay techniques, for example sandwich ELISA, homogenous time-resolved fluorescence (HTRF) immunoassay, or electro-chemiluminescence immunoassay. The potency of the compound is calculated from the percentage of inhibition of amyloid peptide release as a function of the test compound concentration.

[2] = target: human BACE-1 (Homo sapiens, UniProt P56817); test: Test 1: Inhibition of human BACE-1; format: biochemical; settings: recombinant BACE-1, pH 4.5, fluorescence-quenched APP-derived peptide substrate
Description: Test 1: Inhibition of Human BACE-1
IC50 values are calculated from percentage of inhibition of BACE-1 activity as a function of the test compound concentration.

human BACE-1, sequence (P56817 46-457 limits assumed): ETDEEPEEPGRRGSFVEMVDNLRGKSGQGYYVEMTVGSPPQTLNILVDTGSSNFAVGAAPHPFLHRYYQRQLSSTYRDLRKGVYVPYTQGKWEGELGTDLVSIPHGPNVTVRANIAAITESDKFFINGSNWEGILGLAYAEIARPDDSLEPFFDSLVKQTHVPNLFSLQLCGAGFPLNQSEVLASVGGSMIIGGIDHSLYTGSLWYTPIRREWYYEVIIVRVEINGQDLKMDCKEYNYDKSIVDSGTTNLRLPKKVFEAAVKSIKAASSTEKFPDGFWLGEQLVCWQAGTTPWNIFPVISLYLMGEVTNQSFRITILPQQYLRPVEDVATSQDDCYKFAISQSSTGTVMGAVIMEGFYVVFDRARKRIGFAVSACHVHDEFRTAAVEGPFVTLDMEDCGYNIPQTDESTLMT

Compound `COCC(=O)N1CC(N)=NC(c2cc(NC(=O)c3ncc(Br)cc3C)ccc2F)(C(F)F)C1` (stereo not shown) [Example 23, 5-Bromo-3-methyl-pyridine-2-carboxylic acid {3-[6-amino-2-difluoromethyl-4-(2-methoxy-acetyl)-2,3,4,5-tetrahydro-pyrazin-2-yl]-4-fluoro-phenyl}-amide] has a pIC50 [1] of 7.47 and a pIC50 [2] of 8.15.

Work on `CC(=O)N1CC(N)=NC(c2cc(NC(=O)c3ncc(OC(F)F)cc3C)ccc2F)(C(F)F)C1` (stereo not shown) [Example 26, 5-Difluoromethoxy-3-methyl-pyridine-2-carboxylic acid [3-(4-acetyl-6-amino-2-difluoromethyl-2,3,4,5-tetrahydro-pyrazin-2-yl)-4-fluoro-phenyl]-amide] yielded a pIC50 [1] of 7.36 and a pIC50 [2] of 7.64.
